Results reported in patent US20040259794A1 (priority 1999, published 2004).

System: Hartley guinea pigs
Settings: guinea pig, in vivo

Structure (SMILES) | Duration, time for full recovery
CCCCN1CCCCC1C(=O)Nc1c(C)cccc1C (centres unmarked) [bupivacaine] | ~90 min
CCN(CC)CC(=O)Nc1c(C)cccc1C [lidocaine] | ≈ 30 minutes
